Test results from patent publication US20230167437A1, “COMPOSITIONS FOR TREATING CANCER WITH KRAS MUTATIONS AND USES THEREOF” (Aadigen, LLC, priority 2020, published 2023).

Columns and labels:
wild type KRAS = assay: Indel frequencies at the endogenous target sequences (T7E1 / deep sequencing) after ADGN/Cas9 mRNA/gRNA transfection; type: cell-based, human; settings: deep sequencing, 72 hours after transfection, Cas9 mRNA 0.1 μg, gRNA 0.2 μg
How it was run: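 Cas9 mRNA and gRNA complexed with ADGN peptide (20:1 molar ratio) and transfected into KRAS-mutant (G12V or G12D) and other cancer cell lines in 48-well format, 2 h exposure in serum-free DMEM. Indels at endogenous target sites measured 72 h post-transfection by T7E1 or deep sequencing.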

pAKT = assay: Downstream signaling proteins quantified by ELISA on tumors; type: in vivo, mice; settings: PANC1 tumors
Experimental: (§1) The specificity of gRNA35A5 G12D and gRNA35T3 G12V for their targets in PANC-1 and SW403 tumors cells, have been analyzed. Female nude mice 6-weeks of age were injected with either Human pancreatic carcinoma cell (Panc1-Luc) containing the 35G>A mutation or Human colorectal cancer cells (SW403) containing 35G>T KRAS mutation (20×10^6 cells in 200 μl PBS). A period of 2 weeks was allowed for tumor development before the beginning of the experiments.
(§2) Animal were injected on day 1 and day 7. Mice received IV injection of 100 μl ADGN/mRNA complex in 5% glucose. At Day 50, animals were sacrificed and tissues/tumors were harvested. At Day 50 post treatment, level of expression of housekeeping genes; glyceraldehyde-3-phosphate dehydrogenase (GAPDH), HPRT-1 and mitochondrial ATP synthase 6 (mATPsy6) was evaluated by PCR in the tumor, liver, spleen and lung.
(§3) We analyzed the level of KRAS G12D or KRAS G12V gene editing by deep sequencing in PANC1 (FIG. 14A) and SW403 (FIG. 14B) tumors, respectively. […] The level of downstream signaling proteins (pAKT and pERK) were quantified by ELISA on PANC1 and SW403 tumors. […] Given that targeting KRAS using Cas9/sgRNA can induce various secondary mutations at or near the target sites, deep sequencing shown similar level of secondary oncogenic mutations (G12D, G12V, G12C, G13D, G12R, G12A, and G12S) in KRAS-mutant cancer cells (SW403/PANC-1) or cells containing wild-type KRAS (HT29) either in vitro or in vivo.

pERK = assay: as above; type: in vivo, mice; settings: PANC1 tumors
Experimental: as §1, §2, §3

Q: For “AGT TGG AGC TGA TGG CGT (guide AGTTGGAGCTGATGGCGT; chemistry not given here) [gRNA35A5, sgRNA target KRAS G12D mutation (35G>A); PAM AGG]”, which indel frequencies (wild type KRAS; HS68 cells (WT KRAS)) is on record?
A: 2 ± 1%

Q: What about the indel frequencies (wild type KRAS; HT-29 cells (WT KRAS)) of the same sequence?
A: 2 ± 1%

Q: What about the “level of p-AKT” value (pAKT) of the same sequence?
A: significantly reduced

Q: What about the “level of p-ERK” value (pERK) of the same sequence?
A: significantly reduced
